Reference: patent US5602101A, “Antithrombotic agents” (priority 1994, dated 1997)

Assays:
Assay type in all cases: biochemical
Human Plasma [1] = assay: Anticoagulation in human plasma, prothrombin time (PT); conditions: concentration required to double the PT
Description: (§1) Dog plasma and rat plasma are obtained from conscious mixed-breed hounds (either sex, Hazelton-LRE, Kalamazoo, Mich., U.S.A.) or from anesthetized male Sprague-Dawley rats (Harlan Sprague-Dawley, Inc., Indianapolis, Ind., U.S.A.) by venipuncture into 3.8 percent citrate. Fibrinogen is prepared from in-date ACD human blood as the fraction I-2 according to previous procedures and specifications. Smith, Biochem. Chem. […] Human fibrinogen is also purchased as 98 percent pure/plasmin free from American Diagnostics, Greenwich, Conn. Coagulation reagents ACTIN, Thromboplastin, and Human plasma are from Baxter Healthcare Corp., Dade Division, Miami, Fla. Bovine thrombin from Parke-Davis (Ann Arbor, Mich.) is used for coagulation assays in plasma. Coagulation assay procedures are as previously described. Smith, et al., Thrombosis Research, 5, 163-174 (1988). A CoAScreener coagulation instrument (American LABor, Inc.) is used for all coagulation assay measurements. The prothrombin time (PT) is measured by adding 0.05 ml saline and 0.05 ml Thromboplastin-C reagent to 0.05 ml test plasma. The activated partial thromboplastin time (APTT) is measured by incubation of 0.05 ml test plasma with 0.05 ml Actin reagent for 120 seconds followed by 0.05 ml CaCl2 (0.02M). […] The compounds of formula I are added to human or animal plasma over a wide range of concentrations to determine prolongation effects on the APTT, PT, and TT assays. Linear extrapolations are performed to estimate the concentrations required to double the clotting time for each assay.

Human Plasma [2] = assay: Anticoagulation in human plasma, thrombin time (TT); conditions: concentration required to double the thrombin time
Description: as §1

human thrombin = biological target: T1, human thrombin (Homo sapiens, UniProt P00734); assay: Inhibition of amidase activity of thrombin (chromogenic substrate), Kass; conditions: substrate N-benzoyl-Phe-Val-Arg-p-nitroanilide, pH 7.4
T1 construct: purified human thrombin Enzyme Research Laboratories, South Bend, Ind; purchased Enzyme Research Laboratories, South Bend, Ind
Description: (§2) The assay is carried out by mixing 50 μl buffer (0.03M Tris, 0.15M NaCl, pH 7.4), 25 μl of human thrombin solution (purified human thrombin Enzyme Research Laboratories, South Bend, Ind.) at 8 NIH units/ml and 25 μl of test compound in a solvent (50% aqueous methanol (v:v)). Then 150 μl of an aqueous solution of the chromogenic substrate (at 0.25 mg/ml) are added and the rates of hydrolysis of the substrate are measured by monitoring the reactions at 405 nm for the release of p-nitroaniline. Standard curves are constructed by plotting free thrombin concentration against hydrolysis rate. The hydrolysis rates observed with test compounds are then converted to "free thrombin" values in the respective assays by use of the standard curves. The bound thrombin (bound to test compound) is calculated by subtracting the amount of free thrombin observed in each assay from the known initial amount of thrombin used in the assay. The amount of free inhibitor in each assay is calculated by subtracting the number of moles of bound thrombin from the number of moles of added inhibitor (test compound).
The Kass value is the hypothetical equilibrium constant for the reaction between thrombin and the test compound (I). [drawing 53]
(§3) Kass is calculated for a range of concentrations of test compounds and the mean value is reported in units of liter per mole.

factor Xa = biological target: T2, factor Xa (Homo sapiens, UniProt P00742); assay: Serine protease inhibition, factor Xa (chromogenic substrate), Kass; conditions: substrate N-Benzoyl-Ile-Glu-Gly-Arg-p-nitroanilide
T2 construct: Human factors X, Xa, IXa, XIa, and xIIa are purchased from Enzyme Research Laboratories; purchased Enzyme Research Laboratories, South Bend, Ind
T2 sequence (P00742 235-488 limits assumed): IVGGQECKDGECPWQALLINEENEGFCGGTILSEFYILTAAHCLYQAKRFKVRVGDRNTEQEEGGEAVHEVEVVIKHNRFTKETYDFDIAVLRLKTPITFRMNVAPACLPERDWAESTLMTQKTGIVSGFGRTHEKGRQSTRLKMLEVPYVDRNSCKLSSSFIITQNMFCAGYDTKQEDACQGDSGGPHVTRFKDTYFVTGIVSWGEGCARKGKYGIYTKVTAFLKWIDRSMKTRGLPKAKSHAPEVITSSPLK
T2 sequence (P00742 41-179 partner limits assumed): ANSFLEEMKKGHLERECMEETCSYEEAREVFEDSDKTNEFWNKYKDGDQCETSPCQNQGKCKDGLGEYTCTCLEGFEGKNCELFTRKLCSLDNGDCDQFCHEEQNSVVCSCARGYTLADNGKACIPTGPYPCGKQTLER
Description: as §2, §3
(§4) By substantially following the procedures described above for human thrombin, and using other human blood coagulation system serine proteases, and using fibrinolytic system serine proteases, with the appropriate chromogenic substrate, identified below, selectivity of the compounds of the present invention with respect to the coagulation factor serine proteases and to the fibrinolytic serine proteases are evaluated as well as their substantial lack of interference with human plasma clot fibrinolysis.
(§5) Human factors X, Xa, IXa, XIa, and xIIa are purchased from Enzyme Research Laboratories, South Bend, Ind.; human urokinase from Leo Pharmaceuticals, Denmark; and recombinant activated Protein C (aPC) is prepared at Eli Lilly and Co. substantially according to U.S. Pat. No. 4,981,952 incorporated by reference herein in its entirety. Chromogenic substrates: N-Benzoyl-Ile-Glu-Gly-Arg-p-nitroanilide (for factor Xa); N-Cbz-D-Arg-Gly-Arg-p-nitroanilide (for factor IXa assay as the factor Xa substrate) pyroglutamyl-Pro-Arg-p-nitroanilide (for factor XIa and for aPC); H-D-Pro-Phe-Arg-p-nitroanilide (for factor XIIa); and pyroglutamyl-Gly-Arg-p-nitroanilide (for urokinase); are purchased from KabiVitrum, Stockholm, Sweden, or from Midwest Biotech, Fishers, Indiana. Bovine trypsin is purchased from Worthington Biochemicals, Freehold, N.J., and human plasma kallikrein from Kabi Vitrum, Stockholm, Sweden. N-Benzoyl-Phe-Val-Arg-p-nitroanilide, the substrate for human thrombin and for trypsin, is synthesized according to procedures described above for the compounds of the present invention, known methods of peptide coupling from commercially available reactants, or was purchased from Midwest Biotech, Fishers, Ind. Human plasmin is purchased from Boehringer Mannheim, Indianapolis, Ind.; nt-PA is purchased as single chain activity reference from American Diagnostics, Greenwich, Conn.; modified-t-PA6 (mt-PA6) is prepared at Eli Lilly and Company by procedure known in the art (See, Burck, et al., J. Biol. Chem., 265, […] (1990). Plasmin chromogenic substrate H-D-Val-Leu-Lys-p-nitroanilide and tissue plasminegen activator (t-PA) substrate H-D-Ile-Pro-Arg-p-nitroanilide are purchased from Kabi Vitrum, Stockholm, Sweden.

Human Plasma [3] = assay: Anticoagulation in human plasma, activated partial thromboplastin time (APTT); conditions: concentration required to double the APTT
Description: as §1

Bovine trypsin = biological target: T3, Bovine trypsin (Bos taurus, UniProt P00760); assay: Serine protease inhibition, trypsin (chromogenic substrate), Kass; conditions: substrate N-Benzoyl-Phe-Val-Arg-p-nitroanilide
T3 construct: Bovine trypsin is purchased from Worthington Biochemicals, Freehold, N.J; purchased Worthington Biochemicals, Freehold, N.J
T3 sequence (P00760 24-246): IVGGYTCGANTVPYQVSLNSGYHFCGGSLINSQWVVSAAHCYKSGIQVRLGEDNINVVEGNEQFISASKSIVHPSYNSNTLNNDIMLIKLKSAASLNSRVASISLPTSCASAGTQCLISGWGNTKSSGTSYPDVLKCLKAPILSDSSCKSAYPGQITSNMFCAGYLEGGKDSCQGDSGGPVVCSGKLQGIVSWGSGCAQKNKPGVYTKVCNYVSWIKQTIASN
Description: as §2, §3, §4, §5

Human plasmin = biological target: T4, Human plasmin (Homo sapiens, UniProt P00747); assay: Serine protease inhibition, plasmin (chromogenic substrate), Kass; conditions: substrate H-D-Val-Leu-Lys-p-nitroanilide
T4 construct: Human plasmin is purchased from Boehringer Mannheim, Indianapolis, Ind; purchased Boehringer Mannheim, Indianapolis, Ind
T4 sequence (P00747 581-810 limits assumed): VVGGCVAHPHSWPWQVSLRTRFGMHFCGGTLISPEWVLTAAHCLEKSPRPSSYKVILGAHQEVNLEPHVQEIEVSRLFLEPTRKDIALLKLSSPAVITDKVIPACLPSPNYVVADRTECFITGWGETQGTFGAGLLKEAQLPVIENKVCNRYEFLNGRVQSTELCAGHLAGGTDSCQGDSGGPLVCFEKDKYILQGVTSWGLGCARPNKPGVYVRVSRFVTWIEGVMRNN
T4 sequence (P00747 97-580 partner limits assumed): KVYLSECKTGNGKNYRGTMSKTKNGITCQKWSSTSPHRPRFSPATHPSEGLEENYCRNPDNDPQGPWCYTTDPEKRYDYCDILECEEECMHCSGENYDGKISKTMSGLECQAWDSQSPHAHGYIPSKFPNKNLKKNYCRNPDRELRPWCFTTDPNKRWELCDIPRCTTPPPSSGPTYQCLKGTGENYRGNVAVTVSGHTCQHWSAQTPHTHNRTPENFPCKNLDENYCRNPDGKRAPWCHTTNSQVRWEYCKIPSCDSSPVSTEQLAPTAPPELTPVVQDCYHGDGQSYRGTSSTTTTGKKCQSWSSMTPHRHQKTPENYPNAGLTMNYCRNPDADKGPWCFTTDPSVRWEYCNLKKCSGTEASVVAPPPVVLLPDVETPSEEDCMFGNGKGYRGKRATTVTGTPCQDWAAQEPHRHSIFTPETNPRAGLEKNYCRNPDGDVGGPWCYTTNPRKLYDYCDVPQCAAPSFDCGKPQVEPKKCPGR
Description: as §2, §3, §4, §5

[4] = biological target: T5, tissue plasminogen activator (t-PA) (Homo sapiens, UniProt P00750); assay: Serine protease inhibition, t-PA (chromogenic substrate), Kass; conditions: substrate H-D-Ile-Pro-Arg-p-nitroanilide
T5 construct: purchased American Diagnostics, Greenwich, Conn
T5 sequence (P00750 36-562): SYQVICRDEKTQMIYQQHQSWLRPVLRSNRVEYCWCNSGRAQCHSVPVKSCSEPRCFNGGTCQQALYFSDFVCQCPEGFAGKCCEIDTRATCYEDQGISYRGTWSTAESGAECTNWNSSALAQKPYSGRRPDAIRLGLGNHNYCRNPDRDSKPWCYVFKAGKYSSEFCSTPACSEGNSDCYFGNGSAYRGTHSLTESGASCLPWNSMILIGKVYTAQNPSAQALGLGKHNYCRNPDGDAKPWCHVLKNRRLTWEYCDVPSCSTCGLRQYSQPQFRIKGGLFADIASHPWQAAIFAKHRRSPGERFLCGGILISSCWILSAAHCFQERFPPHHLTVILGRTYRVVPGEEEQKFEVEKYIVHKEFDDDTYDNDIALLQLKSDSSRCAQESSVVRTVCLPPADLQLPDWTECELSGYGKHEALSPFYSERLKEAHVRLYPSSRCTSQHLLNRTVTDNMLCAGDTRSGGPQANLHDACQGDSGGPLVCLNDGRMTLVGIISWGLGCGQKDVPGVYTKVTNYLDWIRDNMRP
Description: as §2, §3, §4, §5

Compound | 2 × Clotting time, PT (Human Plasma [1]) | 2 × Clotting time, TT (Human Plasma [2]) [ng/mL] | Enzyme Kass, Human Thrombin (human thrombin) [L/mol × 10^6] | Enzyme Kass, Xa (factor Xa) [L/mol × 10^6] | 2 × Clotting time, APTT (Human Plasma [3]) | Enzyme Kass, Trypsin (Bovine trypsin) [L/mol × 10^6] | Enzyme Kass, Plasmin (Human plasmin) [L/mol × 10^6] | Enzyme Kass, t-Pa [4] [L/mol × 10^6]
CCS(=O)(=O)N[C@@H](C(=O)N1CCC[C@H]1C(=O)N[C@H](C=O)CCCNC(=N)N)c1ccccc1.Cl [Example 20, EtSO2 -D-Phg-Pro-Arg-H.HCl] | 880 ng/mL | 34 | 510 | 45 | 250 ng/mL | 160 | 14 | 0.34
Cc1noc(C)c1S(=O)(=O)N[C@H](Cc1ccccc1)C(=O)N1CCC[C@H]1C(=O)N[C@H](C=O)CCCNC(=N)N.Cl [Example 16, 3,5-Me-4-isoxazolyl-SO2 -D-Phe-Pro-Arg-H.HCl] | 1,300 ng/ML | 33 | 260 | 11 | 430 ng/mL | 200 | 18 | 2.7
Cl.N=C(N)NCCC[C@@H](C=O)NC(=O)[C@@H]1CCCN1C(=O)[C@@H](Cc1ccccc1)NC(=O)Cc1ccccc1 [Example 26, PhCH2 CO-D-Phe-Pro-Arg-H.HCl] | 2,000 ng/ML | 64 | 29 | 0.10 | 1,100 ng/ML | 14 | 0.54 | 0.37
CCOC(=O)N[C@H](CC1CCCCC1)C(=O)N1CCC[C@H]1C(=O)N[C@H](C=O)CCCN=C(N)N.Cl [Example 34, EtOCO-D-Cha-Pro-Arg-H.HCl] | 890 ng/mL | 48 | 360 | 8.1 | 410 ng/mL | 140 | 26 | 0.75
Cl.NC(N)=NCCCC(C=O)NC(=O)C1CCCN1C(=O)C(Cc1ccccc1)NC(=O)Cc1cccnc1 [Example 4, N-(α-(3-pyridyl)-acetyl)-D-Phe-Pro-Arg-H-HCl] | 3,400 ng/ML | 150 | 13 | 0.067 | 2,300 ng/ML | 5.2 | 0.27 | 0.22
COCC(=O)N[C@H](Cc1ccccc1)C(=O)N1CCC[C@H]1C(=O)N[C@H](C=O)CCCNC(=N)N.Cl [Example 24, CH3 OCH2 CO-D-Phe-Pro-Arg-H.HCl] | 1,200 ng/ML | 38 | 33 | 0.29 | 440 ng/mL | 57 | 3.8 | 0.30
CCCN(CCC)S(=O)(=O)c1ccc(C(=O)N[C@H](Cc2ccccc2)C(=O)N2CCC[C@H]2C(=O)N[C@H](C=O)CCCNC(=N)N)cc1.Cl [Example 29, 4-(n-Pr2 NSO2)-C6 H4 CO-D-Phe-Pro-Arg-H.HCl] | 4,800 ng/ML | 150 | 43 | 0.32 | 3,500 ng/ML | 15 | 0.86 | 0.62
Cl.N=C(N)NCCC[C@@H](C=O)NC(=O)[C@@H]1CCCN1C(=O)[C@@H](Cc1ccccc1)NCC(=O)O [Example 35, HOOCCH2 -D-Phe-Pro-ArgH.HCl] | 1129 ng/mL | 14 | 695 | 3.3 | 723 ng/mL |  |  | 
Cl.N=C(N)NCCC[C@@H](C=O)NC(=O)[C@@H]1CCCN1C(=O)[C@@H](CC1CCCCC1)NCC(=O)O [Example 36, HOCCH2 -D-Cha-Pro-ArgH.HCl] | 695 ng/mL | 9 | 556 | 40.5 | 284 ng/mL |  |  | 
